In ChEMBL document CHEMBL1150761, “Additional biologically active constituents of the Chinese tallow tree (Sapium sebiferum)” (1988):
In brackets after ≈: the same amount, converted by molar mass.

System: P388
Assay: Cytotoxicity against mouse P388 cells
Assay type: functional
Details: read-out: ED50 (the source's name)

Row | SMILES | EC50 [µg/mL]
1 | CC[C@H](CC[C@@H](C)[C@H]1CC[C@H]2[C@@H]3CC=C4C[C@@H](O[C@@H]5O[C@H](CO)[C@@H](O)[C@H](O)[C@H]5O)CC[C@]4(C)[C@H]3CC[C@]12C)C(C)C [SITOGLUSIDE] | 53 (≈ 91.9 µM)
2 | O=c1c(O)c(-c2ccc(O)cc2)oc2cc(O)cc(O)c12 [KAEMPFEROL] | 6.7 (≈ 23.4 µM)
3 | O=c1c(O[C@@H]2O[C@H](CO)[C@@H](O)[C@H](O)[C@H]2O)c(-c2ccc(O)cc2)oc2cc(O)cc(O)c12 [ASTRAGALIN] | 8.2 (≈ 18.3 µM)
4 | O=c1c(O)c(-c2ccc(O)c(O)c2)oc2cc(O)cc(O)c12 [QUERCETIN] | 40 (≈ 132 µM)
5 | CC1(C)CC(O)C[C@@]2(C)OC(=O)C=C12 (stereo partly specified) | 15 (≈ 76.4 µM)
6 | O=C(O)c1cc(O)c(O)c(O)c1 [GALLIC ACID] | 0.7 (≈ 4.11 µM)
